Source: patent publication US9056837B2, “Heterocycle compounds and uses thereof” (Intra-Cellular Therapies, Inc., priority 2007, dated 2015)

Test: Mouse brain/plasma distribution assay for tissue levels of test compounds
Assay type: in vivo, C57b1/6 black mice
Conditions: C57Bl/6, mouse, brain, sc; mice, subcutaneous single injection of 1 mg (10 mM DMSO solution); four hours post-administration; measured minus 2% of plasma
Method: Compounds are administered subcutaneously to C57b1/6 black mice as a single injection of 1 mg using a 10 mM DMSO solution. After 2 or 4 hours, the mice are sacrificed. Trunk blood is collected into tubes with potassium-EDTA as anticoagulant and centrifuged at 5000×g for 10 min. The upper plasma phase is decanted from cellular components. Whole brain is sonicated with 20 mM Tris-HCl, 135 mM NaCl, pH 7.4 buffer, giving at 200 mg/mL (w/v) homogenate. Brain homogenate or plasma is extracted with 2 volumes of acetonitrile and clarified by centrifugation at 15,000×g for 20 min. Extracts are separated by HPLC using a Waters Alliance 2695 separations module with a Sunfire™ C18 column (3.5 micron, 2.1×50 mm) and a gradient of methanol over 15 min in a mobile phase of 0.1% formic acid. The separation is monitored by a Micromass Quattro Micro triple-quadrupole mass-spectrometric detector. Compound standardization is performed by methods analogous to those previously reported, e.g., by Zhao, M., et al. (2005) J Chromatogr B Analyt Technol Biomed Life Sci 819, 73-80; and Appels, N. M et al. (2005) Rapid Commun Mass Spectrom 19, 2187-2192. Brain concentration=measured−2% of plasma B/P ratio=brain concentration/plasma concentration

concentration at 4 h: < 0.1 µM
Compound: Cc1ccc(NC(=O)c2ccc(CN3CCN(C)CC3)cc2)cc1Nc1nccc(-c2cccnc2)n1 [imatinib]
